Laboratory results taken from PMC9905339 (Biochemistry, 2023).

Experiments:
Rv0099 = Rv0099 (Mycobacterium tuberculosis, UniProt P9WQ55)
MmaA = MmaA (Mycobacterium marinum, UniProt B2HKL9)
MmaE = MmaE (Mycobacterium marinum, UniProt B2HKM3); assay: LC-HRMS of Py-AP after tetrazine click; type: biochemical; conditions: α-KG, Fe(II), 50 mM HEPES pH 8.0, room temperature
Sequence of MmaE (B2HKM3 whole entry): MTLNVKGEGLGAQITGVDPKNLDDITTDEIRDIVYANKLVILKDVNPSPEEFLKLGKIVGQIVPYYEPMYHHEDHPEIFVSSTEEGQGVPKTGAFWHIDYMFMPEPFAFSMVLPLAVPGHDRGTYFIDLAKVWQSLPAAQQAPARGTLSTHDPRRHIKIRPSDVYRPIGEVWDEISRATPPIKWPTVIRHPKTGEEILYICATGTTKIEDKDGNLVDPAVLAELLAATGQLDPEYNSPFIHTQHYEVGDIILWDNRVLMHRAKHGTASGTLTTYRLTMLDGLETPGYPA

Sequence of Rv0099 (P9WQ55 whole entry): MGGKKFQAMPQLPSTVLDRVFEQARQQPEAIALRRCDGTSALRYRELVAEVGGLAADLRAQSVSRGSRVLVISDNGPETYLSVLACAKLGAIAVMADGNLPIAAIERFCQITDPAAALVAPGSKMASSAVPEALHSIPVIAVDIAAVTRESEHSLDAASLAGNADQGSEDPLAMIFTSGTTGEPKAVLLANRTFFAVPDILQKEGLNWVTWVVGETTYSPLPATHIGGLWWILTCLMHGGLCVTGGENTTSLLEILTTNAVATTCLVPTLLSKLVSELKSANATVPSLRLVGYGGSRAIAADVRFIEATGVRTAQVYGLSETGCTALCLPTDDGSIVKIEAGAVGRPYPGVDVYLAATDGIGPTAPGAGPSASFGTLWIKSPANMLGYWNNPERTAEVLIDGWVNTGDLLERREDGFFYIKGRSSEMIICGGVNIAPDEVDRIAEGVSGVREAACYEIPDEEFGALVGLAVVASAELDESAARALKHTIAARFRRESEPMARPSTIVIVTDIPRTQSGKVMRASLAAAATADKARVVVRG
Sequence of MmaA (B2HKL9 whole entry): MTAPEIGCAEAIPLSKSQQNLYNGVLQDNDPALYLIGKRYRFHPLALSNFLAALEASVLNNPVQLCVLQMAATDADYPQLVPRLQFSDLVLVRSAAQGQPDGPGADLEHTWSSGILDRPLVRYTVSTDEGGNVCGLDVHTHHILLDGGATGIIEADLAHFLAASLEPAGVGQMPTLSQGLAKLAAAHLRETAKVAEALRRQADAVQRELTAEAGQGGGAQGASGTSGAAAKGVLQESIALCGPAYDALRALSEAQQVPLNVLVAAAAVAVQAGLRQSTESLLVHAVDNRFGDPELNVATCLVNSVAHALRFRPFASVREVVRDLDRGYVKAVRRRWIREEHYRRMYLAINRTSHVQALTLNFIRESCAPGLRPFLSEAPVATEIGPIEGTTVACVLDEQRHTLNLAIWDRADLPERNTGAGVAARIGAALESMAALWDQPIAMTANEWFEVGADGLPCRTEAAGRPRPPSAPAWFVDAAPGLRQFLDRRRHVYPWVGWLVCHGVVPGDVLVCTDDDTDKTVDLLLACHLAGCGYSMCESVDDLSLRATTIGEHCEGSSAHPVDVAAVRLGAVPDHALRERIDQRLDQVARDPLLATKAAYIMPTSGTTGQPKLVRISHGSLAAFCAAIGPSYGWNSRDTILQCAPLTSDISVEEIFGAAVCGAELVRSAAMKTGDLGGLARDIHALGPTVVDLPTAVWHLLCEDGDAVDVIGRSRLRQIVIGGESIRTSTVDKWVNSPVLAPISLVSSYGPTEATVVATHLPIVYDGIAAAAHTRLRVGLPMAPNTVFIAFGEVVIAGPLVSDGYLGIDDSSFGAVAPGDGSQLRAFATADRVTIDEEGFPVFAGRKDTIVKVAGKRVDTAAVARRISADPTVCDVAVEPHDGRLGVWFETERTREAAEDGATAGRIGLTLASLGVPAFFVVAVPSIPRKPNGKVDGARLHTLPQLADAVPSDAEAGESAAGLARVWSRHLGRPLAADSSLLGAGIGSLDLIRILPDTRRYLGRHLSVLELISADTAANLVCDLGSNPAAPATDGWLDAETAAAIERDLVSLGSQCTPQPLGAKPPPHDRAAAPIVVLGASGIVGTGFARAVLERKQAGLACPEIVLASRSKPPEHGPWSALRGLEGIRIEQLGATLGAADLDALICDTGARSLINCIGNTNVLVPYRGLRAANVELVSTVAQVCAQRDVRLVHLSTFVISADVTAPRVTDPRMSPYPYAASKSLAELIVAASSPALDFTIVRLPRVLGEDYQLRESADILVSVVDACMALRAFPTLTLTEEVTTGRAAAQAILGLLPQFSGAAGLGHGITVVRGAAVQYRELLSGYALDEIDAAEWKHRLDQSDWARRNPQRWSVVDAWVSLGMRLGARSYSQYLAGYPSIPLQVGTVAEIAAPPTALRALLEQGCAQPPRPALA

Structure (SMILES) | LC-HRMS intact protein and Ppant ejection; loading onto holo-Rv0100 (Rv0099) | also measured
[C-]#[N+]C(CCCCCCC)CC(=O)O (stereo not shown) [INDA, 3-isocyanodecanoic acid] | INDA, ATP, Rv0099, and Rv0100 yielded the expected product, INDA-S-Rv0100 | –
NCCCC[C@H](N)C(=O)O [lysine] | – | LC-HRMS of INLP6; coupled assay with Rv0097/MmaE and Rv0098-0100 (MmaA): together with 2-decenoic acid, ATP, Gly, α-KG, Lys, and NADPH, generated INLP6
CCCCCCCC=CC(=O)O [2-decenoic acid] | Rv0099-catalyzed reaction containing holo-Rv0100, 2-decenoic acid, and ATP | –
CCCCCCCC(CC(=O)O)NCC(=O)O (stereo not shown) [CADA, 3-[(carboxymethyl)amino]decanoic acid] | – | LC-HRMS of Py-AP after tetrazine click; turnover (MmaE): INDA was only detected from the assay with MmaE
